Test results reported in patent publication US20250320556A1, “METHODS AND RELATED ASPECTS FOR DIGITAL MULTI-TEMPERATURE FLUOROMETRIC DETECTION” (THE JOHNS HOPKINS UNIVERSITY, priority 2024, published 2025).

What was measured:
[1] = test system: H23 cell line; experiment: Hypomethylating drug treatment of H23 cells, methylation read out by 15-plex FLAP-Melt; format: cell-based, human; conditions: 500 nM, course of 7 days
Method: (§1) FIGS. 24A-24D. Methylation analysis in Aza-treated cell lines. Normalized methylation levels in untreated and 500 nM Aza-treated cells for H23 (A) and H520 (B) cell lines. Relative methylation changes in Aza-treated cells, normalized to untreated controls, are shown as clustered bar plots. Each cluster represents a loci from the 15-plex panel, with bars indicating different time points. (C) H23 cell line. (D) H520 cell line.
(§2) A notable application of digital PCR-based cfDNA tests is longitudinal disease progression monitoring over and after a course of treatment due to the quantification capability of the technology. Next, we sought to evaluate the performance of our assay in detecting multiple methylation biomarkers in real biological samples with a focus on the ability of our assay to quantify methylation level changes. We started with two cancer cell lines, H23 and H520, derived from lung tissues of NSCLC patients. To replicate a typical treatment monitoring scenario, we conducted hypomethylating drug treatment on the cell lines using 5-Azacytidine (5-Aza), a drug that can irreversibly bind to DNA methyltransferase after being incorporated into DNA and inhibits its activity. H520 and H23 were treated with 5-Aza at 500 nM over a course of 5 and 7 days, respectively. […]

[2] = test system: H520 cell line; experiment: Hypomethylating drug treatment of H520 cells, methylation read out by 15-plex FLAP-Melt; format: cell-based, human; conditions: 500 nM, course of 5 days
Method: as §1, §2

Q: Which “confluency rate of treated cells compared with untreated cells” value [1] does the source give for `Nc1ncn([C@@H]2O[C@H](CO)[C@@H](O)[C@H]2O)c(=O)n1` [5-Aza, 5-Azacytidine] here?
A: Its value is “much lower”.

Q: What about the “methylation level of targets (15-plex panel) in treated cells” value ([1]; vs untreated cells, majority of the targets) of the same compound?
A: The value was “decreasing trend”.

Q: And the “confluency rate of treated cells compared with untreated cells” value [2]?
A: The value was “much lower”.

Q: And the “methylation levels of targets (15-plex panel) in treated cells” value ([2]; vs untreated cells)?
A: Its value is “decreased overtime”.
